How the values were obtained:
Assay type in all cases: in vivo
rice (Oryza sativa) = experiment: Test B flooded paddy test
Procedure, shortened: (§1)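 Ratings are visual, 0–100 (100 = complete control), taken versus untreated controls 13 to 15 days after treatment in the greenhouse. Compound went straight into paddy water held 3 cm above soil, applied to 2-leaf-stage plants of four species.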

[1] = tested on: umbrella sedge (Cyperus difformis); experiment: Test B flooded paddy test
Procedure, shortened: as §1

[2] = tested on: green foxtail (Setaria viridis); experiment: Test B pre-/postemergence plant response
Procedure, shortened: (§2)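 Visual injury, 0–100 scale (100 = complete control), rated against controls after 13 to 15 days in greenhouse. Pre-emergence: seeds in loam/sand soil, treated at planting. Post-emergence: 1- to 4-leaf plants (2 to 18 cm) in peat/vermiculite medium. Compounds formulated in non-phytotoxic solvent with surfactant.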

[3] = tested on: ragweed (common ragweed, Ambrosia elatior); experiment: Test B pre-/postemergence plant response
Procedure, shortened: as §2

[4] = tested on: blackgrass (Alopecurus myosuroides); experiment: Test B pre-/postemergence plant response
Procedure, shortened: as §2

[5] = tested on: pigweed (Amaranthus retroflexus); experiment: Test B pre-/postemergence plant response
Procedure, shortened: as §2

corn (Zea mays) = experiment: Test B pre-/postemergence plant response
Procedure, shortened: as §2

[6] = tested on: lambsquarters (Chenopodium album); experiment: Test B pre-/postemergence plant response
Procedure, shortened: as §2

[7] = tested on: giant foxtail (Setaria faberii); experiment: Test B pre-/postemergence plant response
Procedure, shortened: as §2

[8] = tested on: johnsongrass (Sorghum halepense); experiment: Test B pre-/postemergence plant response
Procedure, shortened: as §2

wild oat (Avena fatua) = experiment: Test B pre-/postemergence plant response
Procedure, shortened: as §2

[9] = tested on: Surinam grass (Brachiaria decumbens); experiment: Test B pre-/postemergence plant response
Procedure, shortened: as §2

[10] = tested on: goosegrass (Eleusine indica); experiment: Test B pre-/postemergence plant response
Procedure, shortened: as §2

[11] = 250 g ai/ha, flooded paddy test, visual rating on 0 to 100 scale (0 no effect, 100 complete control) after 13 to 15 days
[12] = Flood (flooded paddy test), 62 g ai/ha, scale of 0 to 100 where 0 is no effect and 100 is complete control, 13 to 15 days
[13] = 31 g ai/ha, postemergence, scale 0 to 100, 0 is no effect, 100 is complete control
[14] = 62 g ai/ha, postemergence, 0 is no effect, 100 is complete control, 13 to 15 days
[15] = Postemergence, 125 g ai/ha, scale 0 to 100 (0 no effect, 100 complete control)
[16] = Postemergence, 250 g ai/ha, scale 0 to 100 (0 no effect, 100 complete control)
[17] = Preemergence, 31 g ai/ha, scale 0 to 100 (0 no effect, 100 complete control)
[18] = Preemergence, 62 g ai/ha, scale 0 to 100 (0 no effect, 100 complete control)
[19] = Preemergence, 125 g ai/ha, scale 0 to 100, 0 no effect, 100 complete control
[20] = Preemergence, 250 g ai/ha, 0 to 100 scale

## COCCn1c(-c2cc(F)cc(F)c2)ncc(C(=O)C2=C(O)CCCC2=O)c1=O [Compound 119]
Rice (Oryza sativa); [11]
  Plant response rating, Flood, Rice: 35
Rice (Oryza sativa); [12]
  Plant response rating, Rice: 20
[1]; [11]
  Plant response rating, Flood, Sedge, Umbrella: 75
[1]; [12]
  Plant response rating, Sedge, Umbrella: 25
[2]; [13]
  Plant response rating, Foxtail, Green: 85
[2]; [14]
  Foxtail, Green plant response rating (0 to 100 scale): 90
[2]; [15]
  Plant response rating, Foxtail, Green: 95
[2]; [16]
  Plant response rating, Foxtail, Green: 100
[2]; [17]
  Plant response rating, Foxtail, Green: 95
[2]; [18]
  Plant response rating, Foxtail, Green: 100
[2]; [19]
  Plant response rating, Foxtail, Green: 100
[2]; [20]
  Foxtail, Green plant response rating: 100
[3]; [14]
  Ragweed plant response rating (0 to 100 scale): 75
[3]; [15]
  Plant response rating, Ragweed: 95
[3]; [16]
  Plant response rating, Ragweed: 98
[3]; [17]
  Plant response rating, Ragweed: 80
[3]; [18]
  Plant response rating, Ragweed: 80
[3]; [19]
  Plant response rating, Ragweed: 95
[3]; [20]
  Ragweed plant response rating: 95
[4]; [13]
  Plant response rating, Blackgrass: 5
[4]; [14]
  Blackgrass plant response rating (0 to 100 scale): 20
[4]; [15]
  Plant response rating, Blackgrass: 50
[4]; [16]
  Plant response rating, Blackgrass: 50
[4]; [17]
  Plant response rating, Blackgrass: 30
[4]; [18]
  Plant response rating, Blackgrass: 30
[4]; [19]
  Plant response rating, Blackgrass: 50
[4]; [20]
  Blackgrass plant response rating: 70
[5]; [13]
  Plant response rating, Pigweed: 95
[5]; [14]
  Pigweed plant response rating (0 to 100 scale): 98
[5]; [15]
  Plant response rating, Pigweed: 100
[5]; [16]
  Plant response rating, Pigweed: 100
[5]; [17]
  Plant response rating, Pigweed: 80
[5]; [18]
  Plant response rating, Pigweed: 90
[5]; [19]
  Plant response rating, Pigweed: 100
[5]; [20]
  Pigweed plant response rating: 100
Corn (Zea mays); [13]
  Plant response rating, Corn: 20
Corn (Zea mays); [14]
  Corn plant response rating (0 to 100 scale): 45
Corn (Zea mays); [15]
  Plant response rating, Corn: 60
Corn (Zea mays); [16]
  Plant response rating, Corn: 70
Corn (Zea mays); [17]
  Plant response rating, Corn: 0
Corn (Zea mays); [18]
  Plant response rating, Corn: 40
Corn (Zea mays); [19]
  Plant response rating, Corn: 50
Corn (Zea mays); [20]
  Corn plant response rating: 50
[6]; [13]
  Plant response rating, Lambsquarters: 85
[6]; [14]
  Lambsquarters plant response rating (0 to 100 scale): 100
[6]; [15]
  Plant response rating, Lambsquarters: 100
[6]; [16]
  Plant response rating, Lambsquarters: 100
[6]; [17]
  Plant response rating, Lambsquarters: 95
[6]; [18]
  Plant response rating, Lambsquarters: 98
[6]; [19]
  Plant response rating, Lambsquarters: 100
[6]; [20]
  Lambsquarters plant response rating: 100
[7]; [13]
  Plant response rating, Foxtail, Giant: 75
[7]; [14]
  Foxtail, Giant plant response rating (0 to 100 scale): 85
[7]; [15]
  Plant response rating, Foxtail, Giant: 95
[7]; [16]
  Plant response rating, Foxtail, Giant: 95
[7]; [17]
  Plant response rating, Foxtail, Giant: 55
[7]; [18]
  Plant response rating, Foxtail, Giant: 85
[7]; [19]
  Plant response rating, Foxtail, Giant: 95
[7]; [20]
  Foxtail, Giant plant response rating: 100
[8]; [13]
  Plant response rating, Johnsongrass: 10
[8]; [14]
  Johnsongrass plant response rating (0 to 100 scale): 40
[8]; [15]
  Plant response rating, Johnsongrass: 75
[8]; [16]
  Plant response rating, Johnsongrass: 80
[8]; [17]
  Plant response rating, Johnsongrass: 50
[8]; [18]
  Plant response rating, Johnsongrass: 85
[8]; [19]
  Plant response rating, Johnsongrass: 95
[8]; [20]
  Johnsongrass plant response rating: 95
Wild oat (Avena fatua); [13]
  Plant response rating, Oat, Wild: 50
Wild oat (Avena fatua); [14]
  Oat, Wild plant response rating (0 to 100 scale): 60
Wild oat (Avena fatua); [15]
  Plant response rating, Oat, Wild: 95
Wild oat (Avena fatua); [16]
  Plant response rating, Oat, Wild: 95
Wild oat (Avena fatua); [17]
  Plant response rating, Oat, Wild: 0
Wild oat (Avena fatua); [18]
  Plant response rating, Oat, Wild: 45
Wild oat (Avena fatua); [19]
  Plant response rating, Oat, Wild: 50
Wild oat (Avena fatua); [20]
  Oat, Wild plant response rating: 80
[9]; [14]
  Surinam Grass plant response rating (0 to 100 scale): 85
[9]; [15]
  Plant response rating, Surinam Grass: 95
[9]; [16]
  Plant response rating, Surinam Grass: 98
[9]; [17]
  Plant response rating, Surinam Grass: 90
[9]; [18]
  Plant response rating, Surinam Grass: 98
[9]; [19]
  Plant response rating, Surinam Grass: 100
[9]; [20]
  Surinam Grass plant response rating: 100
[10]; [13]
  Plant response rating, Goosegrass: 75
[10]; [14]
  Goosegrass plant response rating (0 to 100 scale): 75
[10]; [15]
  Plant response rating, Goosegrass: 85
[10]; [16]
  Plant response rating, Goosegrass: 95
[10]; [17]
  Plant response rating, Goosegrass: 100
[10]; [18]
  Plant response rating, Goosegrass: 100
[10]; [19]
  Plant response rating, Goosegrass: 100
[10]; [20]
  Goosegrass plant response rating: 100
